pIC50: −log10 of the molar value.
What was measured:
Assay type in all cases: cell-based
[1] = target: T1, human EGFR E746-A750 deletion and T790M Mutation (Homo sapiens, UniProt P00533, DEL746-750/T790M); test: Ba/F3-EGFR-Del/T790M cell anti-proliferative assay (CellTiter 96 MTS, 72 h); conditions: Ba/F3-EGFR-Del/T790M cells
T1 construct: expressed in transfected cells; host or cells: Ba/F3 (murine pro-B) cells transduced with lentivirus from pLVX-IRES puro
Procedure, shortened: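 Ba/F3 cells made IL-3-independent by lentiviral human EGFR E746-A750 del/T790M, puromycin-selected. Cells treated 72 h at 37 °C with compound, 4-fold dilutions from 10,000 nM top concentration. Viability read by MTS tetrazolium-to-formazan conversion, absorbance at 490 nm after 2 h with reagent.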

[2] = target: T2, human EGFR exon 20 insertion ASV (V769_D770insASV) (Homo sapiens, UniProt P00533, INS769ASV); test: Ba/F3-EGFR-Exon20-ASV cell anti-proliferative assay (CellTiter 96 MTS, 72 h); conditions: Ba/F3-EGFR-Exon20-ASV cells
T2 construct: expressed in transfected cells; host or cells: Ba/F3 (murine pro-B) cells transduced with lentivirus from pLVX-IRES puro
T2 sequence (P00533 with tags, fused parts or gaps INS769ASV): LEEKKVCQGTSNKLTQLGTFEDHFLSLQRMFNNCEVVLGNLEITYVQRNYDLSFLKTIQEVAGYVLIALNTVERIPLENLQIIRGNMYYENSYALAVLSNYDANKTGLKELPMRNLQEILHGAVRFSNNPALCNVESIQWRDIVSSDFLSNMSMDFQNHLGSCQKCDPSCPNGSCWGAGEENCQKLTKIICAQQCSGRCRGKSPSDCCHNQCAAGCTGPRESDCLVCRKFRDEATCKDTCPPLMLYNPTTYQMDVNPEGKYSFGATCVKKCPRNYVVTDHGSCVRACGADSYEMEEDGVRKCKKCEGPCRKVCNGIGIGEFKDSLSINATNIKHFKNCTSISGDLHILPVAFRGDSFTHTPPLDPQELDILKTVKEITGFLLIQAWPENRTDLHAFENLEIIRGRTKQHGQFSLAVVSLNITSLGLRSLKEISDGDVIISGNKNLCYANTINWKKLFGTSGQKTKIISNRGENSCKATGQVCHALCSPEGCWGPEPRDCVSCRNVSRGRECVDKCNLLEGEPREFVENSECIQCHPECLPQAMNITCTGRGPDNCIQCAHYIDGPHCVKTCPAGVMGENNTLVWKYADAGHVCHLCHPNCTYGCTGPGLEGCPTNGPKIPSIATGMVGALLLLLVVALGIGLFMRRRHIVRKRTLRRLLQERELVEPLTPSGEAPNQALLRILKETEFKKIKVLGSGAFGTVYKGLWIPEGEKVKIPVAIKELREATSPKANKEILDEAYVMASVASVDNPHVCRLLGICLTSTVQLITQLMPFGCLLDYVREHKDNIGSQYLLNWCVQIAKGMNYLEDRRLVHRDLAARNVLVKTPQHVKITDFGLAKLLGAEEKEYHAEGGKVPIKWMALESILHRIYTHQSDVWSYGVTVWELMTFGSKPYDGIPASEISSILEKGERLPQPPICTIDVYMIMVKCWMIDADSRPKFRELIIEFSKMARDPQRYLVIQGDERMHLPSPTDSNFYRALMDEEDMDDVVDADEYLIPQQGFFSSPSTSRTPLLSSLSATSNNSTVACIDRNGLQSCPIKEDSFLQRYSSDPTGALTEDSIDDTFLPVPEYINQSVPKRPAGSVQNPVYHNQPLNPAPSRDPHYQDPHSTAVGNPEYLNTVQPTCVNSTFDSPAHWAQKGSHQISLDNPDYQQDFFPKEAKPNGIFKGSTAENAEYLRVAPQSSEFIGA
Procedure, shortened: (§1)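 Ba/F3 cells made IL-3-independent by lentiviral EGFR exon 20 NPG or ASV insertion were exposed 72 h at 37 °C to 4-fold dilutions of compound (top 10,000 nM). Viability read by MTS tetrazolium conversion, absorbance 490 nm after 2 h.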

[3] = target: T3, human EGFR exon 20 insertion NPG (H773_V774insNPG) (Homo sapiens, UniProt P00533, INS772GNP); test: Ba/F3-EGFR-Exon20-NPG cell anti-proliferative assay (CellTiter 96 MTS, 72 h); conditions: Ba/F3-EGFR-Exon20-NPG cells
T3 construct: expressed in transfected cells; host or cells: Ba/F3 (murine pro-B) cells transduced with lentivirus from pLVX-IRES puro
T3 sequence (P00533 with tags, fused parts or gaps INS772GNP): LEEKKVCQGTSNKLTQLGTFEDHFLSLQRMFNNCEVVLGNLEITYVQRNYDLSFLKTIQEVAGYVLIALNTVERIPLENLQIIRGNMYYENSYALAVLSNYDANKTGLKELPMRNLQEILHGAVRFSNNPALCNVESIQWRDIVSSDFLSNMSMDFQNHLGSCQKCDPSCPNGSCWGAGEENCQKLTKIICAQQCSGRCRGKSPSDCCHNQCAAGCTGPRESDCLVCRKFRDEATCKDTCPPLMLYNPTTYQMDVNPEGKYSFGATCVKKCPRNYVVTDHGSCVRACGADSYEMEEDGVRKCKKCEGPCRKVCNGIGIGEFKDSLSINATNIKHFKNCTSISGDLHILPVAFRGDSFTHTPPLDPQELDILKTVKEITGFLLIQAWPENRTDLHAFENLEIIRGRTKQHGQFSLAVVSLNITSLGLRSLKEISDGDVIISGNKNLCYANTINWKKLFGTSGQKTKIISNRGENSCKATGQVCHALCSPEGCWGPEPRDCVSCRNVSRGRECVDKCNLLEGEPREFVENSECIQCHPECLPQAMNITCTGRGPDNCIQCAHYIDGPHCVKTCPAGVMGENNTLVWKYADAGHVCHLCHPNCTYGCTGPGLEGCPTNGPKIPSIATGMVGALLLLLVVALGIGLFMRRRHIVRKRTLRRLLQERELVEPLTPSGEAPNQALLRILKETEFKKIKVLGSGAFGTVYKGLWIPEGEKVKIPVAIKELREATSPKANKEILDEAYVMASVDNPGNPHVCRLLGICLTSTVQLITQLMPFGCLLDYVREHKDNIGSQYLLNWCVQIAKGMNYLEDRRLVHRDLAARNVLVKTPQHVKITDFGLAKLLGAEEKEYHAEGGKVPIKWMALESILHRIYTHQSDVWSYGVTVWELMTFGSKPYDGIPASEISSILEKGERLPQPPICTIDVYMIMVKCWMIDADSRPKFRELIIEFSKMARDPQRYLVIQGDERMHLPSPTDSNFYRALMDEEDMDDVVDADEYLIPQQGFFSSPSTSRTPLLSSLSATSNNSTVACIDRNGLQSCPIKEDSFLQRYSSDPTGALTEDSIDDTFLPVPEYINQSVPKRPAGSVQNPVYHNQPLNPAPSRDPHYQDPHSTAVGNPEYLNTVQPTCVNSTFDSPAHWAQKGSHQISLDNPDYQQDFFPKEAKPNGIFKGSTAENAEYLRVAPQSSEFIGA
Procedure, shortened: as §1

[4] = target: T4, Her2 exon 20 YVMA insertion (A775_G776ins YVMA) (Homo sapiens, UniProt P04626, INS775YVMA); test: Ba/F3-Her2 Exon20 YVMA cell anti-proliferative assay (CellTiter 96 MTS, 72 h); conditions: Ba/F3-Her2 Exon20 YVMA cells
T4 construct: expressed in transfected cells; host or cells: Ba/F3 (murine pro-B) cells transduced with lentivirus from pLVX-IRES puro
T4 sequence (P04626 with tags, fused parts or gaps INS775YVMA): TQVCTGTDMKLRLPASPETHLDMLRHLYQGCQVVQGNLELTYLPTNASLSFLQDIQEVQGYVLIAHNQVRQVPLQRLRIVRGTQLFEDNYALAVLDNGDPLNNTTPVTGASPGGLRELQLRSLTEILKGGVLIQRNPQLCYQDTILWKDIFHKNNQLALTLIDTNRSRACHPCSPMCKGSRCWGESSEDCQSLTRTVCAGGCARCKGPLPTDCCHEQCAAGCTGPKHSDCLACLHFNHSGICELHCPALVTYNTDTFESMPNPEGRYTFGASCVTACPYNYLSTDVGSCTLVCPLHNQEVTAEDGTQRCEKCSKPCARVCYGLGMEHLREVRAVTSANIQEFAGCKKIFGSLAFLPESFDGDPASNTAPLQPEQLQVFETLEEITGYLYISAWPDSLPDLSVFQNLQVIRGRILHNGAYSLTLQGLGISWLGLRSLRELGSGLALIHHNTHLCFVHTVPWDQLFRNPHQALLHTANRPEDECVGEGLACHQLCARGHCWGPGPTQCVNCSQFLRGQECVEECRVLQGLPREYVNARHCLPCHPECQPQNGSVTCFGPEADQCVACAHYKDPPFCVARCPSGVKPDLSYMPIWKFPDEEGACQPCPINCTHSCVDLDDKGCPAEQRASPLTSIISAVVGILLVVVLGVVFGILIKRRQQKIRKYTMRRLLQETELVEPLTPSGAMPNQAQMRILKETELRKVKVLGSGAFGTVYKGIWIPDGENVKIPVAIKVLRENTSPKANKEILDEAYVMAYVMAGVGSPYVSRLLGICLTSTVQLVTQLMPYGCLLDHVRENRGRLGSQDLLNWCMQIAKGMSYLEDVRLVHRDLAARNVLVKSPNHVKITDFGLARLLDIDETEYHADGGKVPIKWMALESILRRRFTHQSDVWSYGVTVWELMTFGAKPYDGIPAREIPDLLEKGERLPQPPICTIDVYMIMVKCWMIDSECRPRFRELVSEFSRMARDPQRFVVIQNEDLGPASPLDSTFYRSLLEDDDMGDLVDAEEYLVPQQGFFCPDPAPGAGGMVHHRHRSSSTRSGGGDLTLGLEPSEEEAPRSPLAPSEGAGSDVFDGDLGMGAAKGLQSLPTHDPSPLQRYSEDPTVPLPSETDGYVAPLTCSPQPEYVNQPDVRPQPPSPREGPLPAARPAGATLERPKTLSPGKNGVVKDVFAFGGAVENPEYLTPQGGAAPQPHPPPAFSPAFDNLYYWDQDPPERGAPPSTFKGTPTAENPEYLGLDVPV
Procedure, shortened: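 IL-3-independent Ba/F3 cells transduced with the YVMA insertion were treated with compound in 4-fold dilutions from 10,000 nM top. After 72 h at 37° C, viable cells were quantified by MTS tetrazolium conversion, with absorbance read at 490 nm after 2 h.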

T1 sequence (P00533 with tags, fused parts or gaps DEL746-750/T790M): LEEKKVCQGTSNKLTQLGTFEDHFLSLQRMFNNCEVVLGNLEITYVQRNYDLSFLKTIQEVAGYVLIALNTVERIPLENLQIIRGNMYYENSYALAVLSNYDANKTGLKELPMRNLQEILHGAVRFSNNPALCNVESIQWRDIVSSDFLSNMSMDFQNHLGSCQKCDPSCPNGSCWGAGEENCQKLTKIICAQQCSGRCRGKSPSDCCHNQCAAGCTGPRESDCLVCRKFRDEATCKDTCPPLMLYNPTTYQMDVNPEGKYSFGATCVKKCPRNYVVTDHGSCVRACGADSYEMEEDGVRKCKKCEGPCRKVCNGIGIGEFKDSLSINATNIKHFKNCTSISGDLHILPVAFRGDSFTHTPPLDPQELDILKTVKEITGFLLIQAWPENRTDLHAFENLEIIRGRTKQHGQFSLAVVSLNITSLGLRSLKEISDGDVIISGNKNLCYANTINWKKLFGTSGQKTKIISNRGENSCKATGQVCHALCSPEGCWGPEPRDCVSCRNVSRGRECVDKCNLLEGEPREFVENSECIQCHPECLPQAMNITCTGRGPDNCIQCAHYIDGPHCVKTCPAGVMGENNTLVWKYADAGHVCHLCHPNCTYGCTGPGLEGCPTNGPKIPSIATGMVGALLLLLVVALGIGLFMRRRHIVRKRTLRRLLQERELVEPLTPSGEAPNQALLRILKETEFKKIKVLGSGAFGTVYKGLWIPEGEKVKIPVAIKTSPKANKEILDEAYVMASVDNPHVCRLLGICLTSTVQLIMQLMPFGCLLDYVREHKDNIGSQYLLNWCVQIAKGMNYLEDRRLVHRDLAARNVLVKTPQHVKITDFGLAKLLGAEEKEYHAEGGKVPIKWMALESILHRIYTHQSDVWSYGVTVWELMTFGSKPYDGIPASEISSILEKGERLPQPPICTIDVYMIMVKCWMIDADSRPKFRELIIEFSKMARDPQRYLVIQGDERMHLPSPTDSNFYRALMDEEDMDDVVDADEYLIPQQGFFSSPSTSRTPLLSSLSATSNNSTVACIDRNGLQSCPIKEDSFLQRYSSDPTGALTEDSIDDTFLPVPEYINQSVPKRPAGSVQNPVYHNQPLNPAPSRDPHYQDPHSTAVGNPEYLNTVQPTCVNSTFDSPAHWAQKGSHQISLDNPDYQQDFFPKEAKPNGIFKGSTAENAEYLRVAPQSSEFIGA

pIC50 [2] | pIC50 [3] | pIC50 [4] | Structure (SMILES) | EGFR exon 19 deletion and exon 20 T790M mutation IC50 [1]
> 7.00 | > 7.00 | > 7.00 | C=CC(=O)Nc1cc(Nc2ncc(C(=O)OCC)c(-c3cn4c5c(cccc35)CCC4)n2)c(OC)cc1N(C)CCN(C)C [Example 69, ethyl 2-((5-acrylamido-4-((2-(dimethylamino)ethyl)(methyl)amino)-2-methoxyphenyl)amino)-4-(5,6-dihydro-4H-pyrrolo[3,2,1-ij]quinolin-1-yl)pyrimidine-5-carboxylate] | A (IC50 value for the indicated mutant below about 100 nM)
> 7.00 | > 7.00 | 6.30 to 7.00 | C=CC(=O)Nc1cc(Nc2ncc(CO)c(-c3cn4c5c(cccc35)CCC4)n2)c(OC)cc1N(C)CCN(C)C [Example 70, N-(5-((4-(5,6-dihydro-4H-pyrrolo[3,2,1-ij]quinolin-1-yl)-5-(hydroxymethyl)pyrimidin-2-yl)amino)-2-((2-(dimethylamino)ethyl)-(methyl)amino)-4-methoxyphenyl)acrylamide] | A (IC50 value for the indicated mutant below about 100 nM)
> 7.00 | > 7.00 | > 7.00 | C=CC(=O)Nc1cc(Nc2ncc(-c3nnco3)c(-c3cn4c5c(cccc35)CCC4)n2)c(OC)cc1N(C)CCN(C)C [Example 71, N-(5-((4-(5,6-dihydro-4H-pyrrolo[3,2,1-ij]quinolin-1-yl)-5-(1,3,4-oxadiazol-2-yl)pyrimidin-2-yl)amino)-2-((2-(dimethylamino)ethyl)(methyl)amino)-4-methoxyphenyl)acrylamide] | A (IC50 value for the indicated mutant below about 100 nM)
> 7.00 | > 7.00 | 6.30 to 7.00 | C=CC(=O)Nc1cc(Nc2nccc(-c3c(N4CCCC4=O)n4c5c(cccc35)CCC4)n2)c(OC)cc1N(C)CCN(C)C [Example 72, N-(2-((2-(dimethylamino)ethyl)(methyl)amino)-4-methoxy-5-((4-(2-(2-oxopyrrolidin-1-yl)-5,6-dihydro-4H-pyrrolo[3,2,1-ij]quinolin-1-yl)pyrimidin-2-yl)amino)phenyl)acrylamide] | A (IC50 value for the indicated mutant below about 100 nM)
> 7.00 | > 7.00 | 6.30 to 7.00 | C=CC(=O)Nc1cc(Nc2ncc(C(O)CC)c(-c3cn4c5c(cccc35)CCC4)n2)c(OC)cc1N(C)CCN(C)C (stereo not shown) [Example 73, N-(5-((4-(5,6-dihydro-4H-pyrrolo[3,2,1-ij]quinolin-1-yl)-5-(1-hydroxypropyl)pyrimidin-2-yl)amino)-2-((2-(dimethylamino)ethyl)-(methyl)amino)-4-methoxyphenyl)acrylamide] | A (IC50 value for the indicated mutant below about 100 nM)

Continued, compound first:

Structure (SMILES) | pIC50 [2] | pIC50 [3] | pIC50 [4] | EGFR exon 19 deletion and exon 20 T790M mutation IC50 [1]
C=CC(=O)Nc1cc(Nc2ncc(N(C)CCO)c(-c3cn4c5c(cccc35)CCC4)n2)c(OC)cc1N(C)CCN(C)C [Example 60, N-(5-((4-(5,6-dihydro-4H-pyrrolo[3,2,1-ij]quinolin-1-yl)-5-((2-hydroxyethyl)(methyl)amino)pyrimidin-2-yl)amino)-2-((2-(dimethylamino)ethyl)-(methyl)amino)-4-methoxyphenyl)acrylamide] | > 7.00 | > 7.00 | 6.30 to 7.00 | A (IC50 value for the indicated mutant below about 100 nM)
C=CC(=O)Nc1cc(Nc2nccc(-c3c(N4CCC(O)C4)n4c5c(cccc35)CCC4)n2)c(OC)cc1N(C)CCN(C)C (stereo not shown) [Example 61, N-(2-((2-(dimethylamino)ethyl)(methyl)amino)-5-((4-(2-(3-hydroxypyr4rolidin-1-yl)5,6-dihydro-4H-pyrrolo[3,2,1-ij]quinolin-1-yl)pyrimidin-2-yl)amino)-4-methoxyphenyl)acrylamide] | > 7.00 | > 7.00 | > 7.00 | A (IC50 value for the indicated mutant below about 100 nM)
C=CC(=O)Nc1cc(Nc2ncc(-c3ncco3)c(-c3cn4c5c(cccc35)CCC4)n2)c(OC)cc1N(C)CCN(C)C [Example 62, N-(5-((4-(5,6-dihydro-4H-pyrrolo[3,2,1-ij]quinolin-1-yl)-5-(oxazol-2-yl)pyrimidin-2-yl)amino)-2-((2-(dimethylamino)ethyl)(methyl)amino)-4-methoxyphenyl)acrylamide] | > 7.00 | > 7.00 | > 7.00 | A (IC50 value for the indicated mutant below about 100 nM)
C=CC(=O)Nc1cc(Nc2nccc(-c3c(-c4ncco4)n4c5c(cccc35)CCC4)n2)c(OC)cc1N(C)CCN(C)C [Example 63, N-(2-((2-(dimethylamino)ethyl)(methyl)amino)-4-methoxy-5-((4-(2-(oxazol-2-yl)-5,6-dihydro-4H-pyrrolo[3,2,1-ij]quinolin-1-yl)pyrimidin-2-yl)amino)phenyl)acrylamide] | 6.30 to 7.00 | > 7.00 | 6.00 to 6.30 | A (IC50 value for the indicated mutant below about 100 nM)
C=CC(=O)Nc1cc(Nc2ncc(OC(F)F)c(-c3cn4c5c(cccc35)CCC4)n2)c(OC)cc1N(C)CCN(C)C [Example 64, N-(5-((5-(difluoromethoxy)-4-(5,6-dihydro-4H-pyrrolo[3,2,1-ij]quinolin-1-yl)pyrimidin-2-yl)amino)-2-((2-(dimethylamino)ethyl)-(methyl)amino)-4-methoxyphenyl)acrylamide] | > 7.00 | > 7.00 | 6.30 to 7.00 | A (IC50 value for the indicated mutant below about 100 nM)
C=CC(=O)Nc1cc(Nc2ncc(C(=O)OC)c(-c3nn4c5c(cccc35)OCC4)n2)c(OC)cc1N(C)CCN(C)C [Example 65, Methyl 2-((5-acrylamido-4-((2-(dimethylamino)ethyl)(methyl)amino)-2-methoxyphenyl)amino)-4-(2,3-dihydro-[1,4]oxazino[2,3,4-hi]indazol-6-yl)pyrimidine-5-carboxylate] | > 7.00 | > 7.00 | > 7.00 | A (IC50 value for the indicated mutant below about 100 nM)
C=CC(=O)Nc1cc(Nc2ncc(CC)c(-c3cn4c5c(cccc35)N(C)C(=O)C4)n2)c(OC)cc1N(C)CCN(C)C [Example 66, N-(2-((2-(dimethylamino)ethyl)(methyl)amino)-5-((5-ethyl-4-(1-methyl-2-oxo-2,3-dihydro-1H-pyrrolo[1,2,3-de]quinoxalin-6-yl)pyrimidin-2-yl)amino)-4-methoxyphenyl)acrylamide] | > 7.00 | > 7.00 | > 7.00 | A (IC50 value for the indicated mutant below about 100 nM)
C=CC(=O)Nc1cc(Nc2ncc(C(=O)NC)c(-c3nn4c5c(cccc35)OCC4)n2)c(OC)cc1N(C)CCN(C)C [Example 67] | < 6.00 | < 6.00 | < 6.00 | D (IC50 value for the indicated mutant greater than about 1 μM)

From US20170166598A1, “HETEROARYL COMPOUNDS FOR KINASE INHIBITION” (ARIAD PHARMACEUTICALS, INC., priority 2014, published 2017)
